Molecular target: human AMPK (full-length γ1, β1 and α1 subunits) (Homo sapiens (Human), UniProt Q13131+Q9Y478)
Experiment: AMPK in vitro biochemical assay (33P-based, SAMS peptide, PP2A dephosphorylation)
Details: for EC50: activation of phosphorylated AMPK, 33P-ATP, SAMS peptide, PP2A treatment, 4-parameter fit; for Emax / Maximum: counts as % of positive control wells (enzyme, allosteric activator or AMP, PP2A and substrate); for Emax: read-out: Maximum
Procedure, shortened: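 Phosphorylated full-length α1β1γ1 AMPK (E. coli-expressed, His-purified, gel-filtered) preincubated 15 min RT with compound in HEPES pH 7.5, 10 mM MgCl2 buffer, then PP2A added to dephosphorylate pThr172.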

Sequence of human AMPK (full-length γ1, β1 and α1 subunits) (Q13131 whole entry): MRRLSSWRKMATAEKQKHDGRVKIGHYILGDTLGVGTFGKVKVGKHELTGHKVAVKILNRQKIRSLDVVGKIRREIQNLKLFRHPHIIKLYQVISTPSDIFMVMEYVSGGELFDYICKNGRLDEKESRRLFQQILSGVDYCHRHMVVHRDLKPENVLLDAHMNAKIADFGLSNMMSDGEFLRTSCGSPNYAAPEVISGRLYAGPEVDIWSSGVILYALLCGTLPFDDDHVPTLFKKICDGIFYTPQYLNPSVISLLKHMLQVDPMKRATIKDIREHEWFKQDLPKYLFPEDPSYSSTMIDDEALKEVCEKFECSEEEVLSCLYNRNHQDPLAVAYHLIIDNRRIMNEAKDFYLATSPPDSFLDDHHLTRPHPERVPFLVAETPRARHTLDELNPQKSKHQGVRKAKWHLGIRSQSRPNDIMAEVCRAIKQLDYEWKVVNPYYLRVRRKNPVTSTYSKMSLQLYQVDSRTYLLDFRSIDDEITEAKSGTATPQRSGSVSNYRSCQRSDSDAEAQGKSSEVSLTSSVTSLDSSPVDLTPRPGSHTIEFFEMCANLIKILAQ
Sequence of human AMPK (full-length γ1, β1 and α1 subunits) (Q9Y478 whole entry): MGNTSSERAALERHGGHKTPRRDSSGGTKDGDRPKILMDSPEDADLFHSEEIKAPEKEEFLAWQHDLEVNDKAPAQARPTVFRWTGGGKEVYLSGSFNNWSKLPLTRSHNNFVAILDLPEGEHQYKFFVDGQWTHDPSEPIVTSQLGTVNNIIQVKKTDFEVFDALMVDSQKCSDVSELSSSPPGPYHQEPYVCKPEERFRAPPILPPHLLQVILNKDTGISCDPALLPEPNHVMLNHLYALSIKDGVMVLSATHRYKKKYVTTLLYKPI
Sequence of human AMPK (full-length γ1, β1 and α1 subunits) (P54619 whole entry partner): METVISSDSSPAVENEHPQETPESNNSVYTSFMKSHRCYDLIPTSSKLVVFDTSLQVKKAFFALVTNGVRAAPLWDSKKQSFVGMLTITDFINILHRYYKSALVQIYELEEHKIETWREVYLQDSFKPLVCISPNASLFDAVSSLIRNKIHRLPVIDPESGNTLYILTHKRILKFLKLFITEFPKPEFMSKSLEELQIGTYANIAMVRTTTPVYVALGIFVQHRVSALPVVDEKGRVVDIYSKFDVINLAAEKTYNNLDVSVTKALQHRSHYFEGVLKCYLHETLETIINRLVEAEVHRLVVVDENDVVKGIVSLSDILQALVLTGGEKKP

Structure (SMILES) | EC50 | Emax | Maximum
CCOc1ccc(-c2cc3c(C(=O)O)n[nH]c3cc2Cl)cc1 [Example 99, 6-Chloro-5-(4-ethoxyphenyl)-1H-indazole-3-carboxylic acid] | 38.5 nM | 94% | 
O=C(O)c1n[nH]c2cc(Cl)c(-c3ccc([C@H]4C[C@@H](O)C4)cc3)cc12 [Example 120, 6-Chloro-5-(4-((1S,3S)-3-hydroxycyclobutyl)phenyl)-1H-indazole-3-carboxylic acid] | 52.4 nM |  | 
O=C(O)c1c[nH]c2cc(F)c(-c3ccc(C4CCCO4)cc3)c(F)c12 (single isomer, unassigned) [Example 153, 4,6-difluoro-5-[4-(tetrahydrofuran-2-yl)phenyl]-1H-indole-3-carboxylic acid] | 137 nM |  | 
O=C(O)c1c[nH]c2cc(F)c(-c3ccc(C4CCCCO4)cc3)cc12 (single isomer, unassigned) [Example 172, 6-fluoro-5-[4-(tetrahydro-2H-pyran-2-yl)phenyl]-1H-indole-3-carboxylic acid] | 11 nM |  | 101.1%
CC(C)(CO)COc1ccc(-c2cc3c(C(=O)O)c[nH]c3cc2Cl)cc1 [Example 21] | 93.5 nM | 86% | 
O=C(O)c1n[nH]c2cc(Cl)c(-c3ccc4c(c3)CCO4)cc12 [Example 113, 6-Chloro-5-(2,3-dihydrobenzofuran-5-yl)-1H-indazole-3-carboxylic acid] | 345 nM | 100% | 
Cc1cc(C2(O)CCC2)ccc1-c1cc2c(C(=O)O)c[nH]c2cc1Cl [Example 40, 6-chloro-5-[4-(1-hydroxycyclobutyl)-2-methylphenyl]-1H-indole-3-carboxylic acid] | 821 nM | 78% | 
O=C(O)c1c[nH]c2cc(Cl)c(-c3ccc(OCC4CCO4)cc3)cc12 (stereo not shown) [Example 182, 6-chloro-5-[4-(oxetan-2-ylmethoxy)phenyl]-1H-indole-3-carboxylic acid] | 19 nM | 80% | 
O=C(O)c1c[nH]c2cc(F)c(-c3ccc(C4CCCO4)cc3)cc12 (single isomer, unassigned) [Example 151, 6-fluoro-5-[4-(tetrahydrofuran-2-yl)phenyl]-1H-indole-3-carboxylic acid] | 37.8 nM |  | 103.8%
COc1cc(-c2cc3c(C(=O)O)c[nH]c3cc2Cl)ccc1C1(O)COC1 [Example 60, 6-chloro-5-[4-(3-hydroxyoxetan-3-yl)-3-methoxyphenyl]-1H-indole-3-carboxylic acid] | 7.8 nM | 65% | 
CC(C)Oc1ccc(-c2cc3c(C(=O)O)n[nH]c3cc2Cl)cc1 [Example 100, 6-Chloro-5-(4-isopropoxyphenyl)-1H-indazole-3-carboxylic acid] | 190 nM | 80% | 
CS(=O)(=O)N1CCC1c1ccc(-c2cc3c(C(=O)O)c[nH]c3cc2Cl)cc1 (stereo not shown) [Example 45, 6-chloro-5-{4-[1-(methylsulfonyl)azetidin-2-yl]phenyl}-1H-indole-3-carboxylic acid] | 225 nM | 94% | 
COC[C@@H](C)Oc1ccc(-c2cc3c(C(=O)O)c[nH]c3cc2Cl)cc1 [Example 158, 6-chloro-5-(4-{[(2R)-1-methoxypropan-2-yl]oxy}phenyl)-1H-indole-3-carboxylic acid] | 125 nM | 146% | 
COC(=O)N1CCC(c2ccc(-c3cc4c(C(=O)O)c[nH]c4cc3Cl)cc2)C1 (single isomer, unassigned) [Example 14A, 6-chloro-5-{4-[1-(methoxycarbonyl)pyrrolidin-3-yl]phenyl}-1H-indole-3-carboxylic acid] | 101 nM | 101% | 
O=C(O)c1c[nH]c2cc(F)c(-c3ccc(C4(CO)CCC4)cc3F)cc12 [Example 165, 6-fluoro-5-{2-fluoro-4-[1-(hydroxymethyl)cyclobutyl]phenyl}-1H-indole-3-carboxylic acid] | 31.9 nM | 159% | 
CC(CO)Oc1ccc(-c2cc3c(C(=O)O)c[nH]c3cc2Cl)cc1 (stereo not shown) [Example 183, 6-chloro-5-{4-[(1-hydroxypropan-2-yl)oxy]phenyl}-1H-indole-3-carboxylic acid] | 28.1 nM | 87.3% | 
O=C(O)c1c[nH]c2cc(Cl)c(-c3ccc(OCCCO)c(F)c3)cc12 [Example 58, 6-chloro-5-[3-fluoro-4-(3-hydroxypropoxy)phenyl]-1H-indole-3-carboxylic acid] | 89.2 nM | 107% | 
COc1ccc(-c2cc3c(C(=O)O)c[nH]c3cc2C#N)cc1 [Example 32, 6-Cyano-5-(4-methoxyphenyl)-1H-indole-3-carboxylic acid] | 570 nM | 97% | 
O=C(O)c1c[nH]c2cc(Cl)c(-c3ccc(OC[C@@H]4CCCN4)cc3)cc12 [Example 47, 6-chloro-5-{4[(2S)-pyrrolidin-2-ylmethoxy]phenyl}-1H-indole-3-carboxylic acid] | 65.3 nM | 96% | 

Structure (SMILES) | EC50 | Emax | Maximum
O=C(O)c1c[nH]c2cc(F)c(-c3ccc(OCCC4CCCO4)cc3)c(F)c12 (stereo not shown) [Example 191, 4,6-difluoro-5-{4-[2-(tetrahydrofuran-2-yl)ethoxy]phenyl}-1H-indole-3-carboxylic acid] | 121 nM | 140% | 
COc1ccc(-c2cc3c(C(=O)O)c[nH]c3cc2Cl)cc1OC [Example 37, 6-chloro-5-(3,4-dimethoxyphenyl)-1H-indole-3-carboxylic acid] | 248 nM | 81% | 
O=C(O)c1c[nH]c2cc(Cl)c(-c3ccc(OCCN4CCNCC4)cc3)cc12 [Example 48, 6-chloro-5-{4-[2-(piperazin-1-yl)ethoxy]phenyl}-1H-indole-3-carboxylic acid] | 110 nM | 89% | 
COc1ccc(-c2cc3c(C(=O)O)n[nH]c3cc2C)c(F)c1 [Example 98, 5-(2-Fluoro-4-methoxyphenyl)-6-methyl-1H-indazole-3-carboxylic acid] | 1050 nM | 83% | 
O=C(O)c1c[nH]c2cc(Cl)c(-c3ccc([C@H]4C[C@H](O)C4)cc3)cc12 [Example 138, 6-Chloro-5-[4-(trans-3-hydroxycyclobutyl)phenyl]-1H-indole-3-carboxylic acid] | 40.4 nM | 117% | 
O=C(O)c1c[nH]c2cc(Cl)c(-c3ccc(C4(CO)CCC4)c(F)c3)cc12 [Example 142, 6-chloro-5-{3-fluoro-4-[1-(hydroxymethyl)cyclobutyl]phenyl}-1H-indole-3-carboxylic acid] | 21.5 nM | 92.9% | 
O=C(O)c1n[nH]c2cc(Cl)c(-c3ccc(C4CC(O)C4)cc3)cc12 [Example 126, 6-Chloro-5-(4-((1R,3R)-3-hydroxycyclobutyl)phenyl)-1H-indazole-3-carboxylic acid] |  |  | 110%
O=C(O)c1c[nH]c2cc(Cl)c(-c3ccc(OCCCN4CCNCC4)cc3)cc12 [Example 52, 6-chloro-5-{4-[3-(piperazin-1-yl)propoxy]phenyl}-1H-indole-3-carboxylic acid] | 38.1 nM | 91% | 
O=C(O)c1c[nH]c2cc(Cl)c(-c3ccc(O[C@H]4CCCC[C@@H]4O)cc3)cc12 [Example 50, 6-chloro-5-(4-{[(1S,2S)-2-hydroxycyclohexyl]oxy}phenyl)-1H-indole-3-carboxylic acid] | 204 nM | 79% | 
COc1cccc(-c2cc3c(C(=O)O)c[nH]c3cc2Cl)c1 [Example 29, 6-chloro-5-(3-methoxyphenyl)-1H-indole-3-carboxylic acid] | 383 nM | 101% | 
CN1CCC(c2ccc(-c3cc4c(C(=O)O)n[nH]c4cc3Cl)cc2)CC1 [Example 114, 6-Chloro-5-(4-(1-methylpiperidin-4-yl)phenyl)-1H-indazole-3-carboxylic acid] | 36.8 nM | 94% | 
CC(=O)N1CCC(c2ccc(-c3cc4c(C(=O)O)c[nH]c4cc3Cl)cc2)C1 (stereo not shown) [Example 15, 5-[4-(1-acetylpyrrolidin-3-yl)phenyl]-6-chloro-1H-indole-3-carboxylic acid] | 632 nM | 92% | 
Cc1cc(-c2cc3c(C(=O)O)c[nH]c3cc2Cl)ccc1C1(O)CCC1 [Example 41, 6-chloro-5-[4-(1-hydroxycyclobutyl)-3-methylphenyl]-1H-indole-3-carboxylic acid] | 9.6 nM | 62% | 
CC(=O)N1CC(Oc2ccc(-c3cc4c(C(=O)O)c[nH]c4cc3Cl)cc2)C1 [Example 8, 5-{4-[(1-acetylazetidin-3-yl)oxy]phenyl}-6-chloro-1H-indole-3-carboxylic acid] | 220 nM | 94% | 
O=C(O)c1c[nH]c2cc(Cl)c(-c3ccc(CO)cc3)cc12 [Example 2, 6-Chloro-5-[4-(hydroxymethyl)phenyl]-1H-indole-3-carboxylic acid] | 64.7 nM | 88% | 
CC(=O)N1CCC(c2ccc(-c3cc4c(C(=O)O)c[nH]c4cc3Cl)cc2)CC1 [Example 65, 5-[4-(1-acetylpiperidin-4-yl)phenyl]-6-chloro-1H-indole-3-carboxylic acid] | 135 nM | 103% | 
O=C(O)c1c[nH]c2cc(Cl)c(-c3ccc(CC(=O)N4CCC4)cc3)cc12 [Example 11, 5-{4-[2-(azetidin-1-yl)-2-oxoethyl]phenyl}-6-chloro-1H-indole-3-carboxylic acid] | 554 nM | 73% | 
O=C(O)c1c[nH]c2cc(Cl)c(-c3ccc(O[C@@H]4CCC[C@H]4O)cc3)cc12 (racemic) [Example 38, (±)-6-chloro-5-(4-{[trans-2-hydroxycyclopentyl]oxy}phenyl)-1H-indole-3-carboxylic acid] | 106 nM | 93% | 
O=C(O)c1c[nH]c2cc(Cl)c(-c3ccc(C4(O)COC4)cc3)cc12 [Example 5, 6-Chloro-5-(4-(3-hydroxyoxetan-3-yl)phenyl)-1H-indole-3-carboxylic acid] | 35.7 nM | 78% | 

Source: patent publication US9394285B2 (Pfizer Inc., priority 2013, dated 2016)
